Laboratory results reported in patent publication US8106055B2, “Substituted amide compounds” (Gruenenthal GmbH, priority 2007, dated 2012).

Key:
human μ opiate receptor = molecular target: T1, human μ opiate receptor (Homo sapiens, UniProt P35372); experiment: Affinity for the human μ opiate receptor ([3H]-naloxone displacement, CHO-K1 receptor membrane preparation, SPA); format: binding; settings: test concentration of 1 μM
T1 construct: purchased PerkinElmer Life Sciences, Zaventem, Belgium RB-HOM; host or cells: CHO-K1 cells (membrane preparation)
Summary of the method: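 Displacement of 1 nmol/l [3H]-naloxone measured by SPA counting after 90 min at room temperature, using human μ receptor CHO-K1 membrane preparation in Tris-HCl buffer with 0.06% BSA. Test substances at 1 μmol/l give % inhibition; dilution series yield IC50, then Ki (Cheng-Prusoff); non-specific binding with 100 μmol/l naloxone.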

[1] = molecular target: T2, serotonin (5-HT) reuptake (Rattus norvegicus, UniProt P31652); experiment: Inhibition of serotonin (5HT) reuptake in synaptosomes from rat brain; format: biochemical; settings: test concentration of 10 μM
T2 construct: synaptosomes are freshly isolated from areas of the rat brain; from tissue; host or cells: rat brain synaptosomes (P2 fraction)
Summary of the method: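 Compounds screened at 10 μM and reported as percent inhibition of serotonin uptake. Uptake measured in a freshly prepared P2 synaptosomal fraction from rat brain.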

T1 sequence (P35372 whole entry): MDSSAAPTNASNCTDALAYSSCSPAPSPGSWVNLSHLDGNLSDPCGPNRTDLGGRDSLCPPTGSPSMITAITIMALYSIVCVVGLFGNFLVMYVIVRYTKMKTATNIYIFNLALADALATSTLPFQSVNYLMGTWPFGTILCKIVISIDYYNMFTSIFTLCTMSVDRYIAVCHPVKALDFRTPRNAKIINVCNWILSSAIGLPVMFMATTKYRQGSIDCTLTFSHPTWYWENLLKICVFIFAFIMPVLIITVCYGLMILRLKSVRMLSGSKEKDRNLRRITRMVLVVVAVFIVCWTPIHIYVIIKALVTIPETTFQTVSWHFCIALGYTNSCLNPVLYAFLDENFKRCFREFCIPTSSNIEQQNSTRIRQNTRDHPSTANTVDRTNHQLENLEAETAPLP
T2 sequence (P31652 whole entry): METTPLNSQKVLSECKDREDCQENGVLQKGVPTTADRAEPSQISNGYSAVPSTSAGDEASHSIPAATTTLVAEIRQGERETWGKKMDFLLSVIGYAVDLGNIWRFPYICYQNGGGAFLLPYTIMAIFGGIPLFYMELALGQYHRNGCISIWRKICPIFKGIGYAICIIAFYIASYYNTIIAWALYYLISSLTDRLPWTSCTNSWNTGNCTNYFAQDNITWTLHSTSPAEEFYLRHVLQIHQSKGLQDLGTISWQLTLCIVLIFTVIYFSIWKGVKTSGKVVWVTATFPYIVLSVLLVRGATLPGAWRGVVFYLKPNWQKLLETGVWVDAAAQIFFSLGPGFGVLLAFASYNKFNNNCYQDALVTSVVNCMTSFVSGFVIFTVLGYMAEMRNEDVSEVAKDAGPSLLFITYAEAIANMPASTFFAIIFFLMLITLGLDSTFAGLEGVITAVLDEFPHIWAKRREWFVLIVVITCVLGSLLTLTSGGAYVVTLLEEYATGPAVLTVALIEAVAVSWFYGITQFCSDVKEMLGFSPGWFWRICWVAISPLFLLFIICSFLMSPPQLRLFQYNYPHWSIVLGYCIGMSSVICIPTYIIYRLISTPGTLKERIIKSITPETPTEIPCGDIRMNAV

Compound	μ (binding on the μ opioid receptor, % inhibition) (human μ opiate receptor)	5-HT (inhibition of reuptake of serotonin, % inhibition) [1]	μ (binding on the μ opioid receptor, % inhibition) (human μ opiate receptor; 1 µM)	5-HT (inhibition of reuptake of serotonin, % inhibition) ([1]; 10 µM)
COc1cc(C)c(S(=O)(=O)N(CCOCC(=O)NCCC2CCC(C(c3ccc(F)cc3)N(C)C)CC2)Cc2ccccc2)c(C)c1C (stereo not shown) [Example 554]	28%	92%		
COc1ccc(S(=O)(=O)N2CCCCC2COCC(=O)NC2CCC(C(c3ccc(F)cc3)N(C)C)CC2)cc1OC (stereo not shown) [Example 555]	23%	86%		
CN(C)C(CCc1ccccc1)C1CCC(CNC(=O)COCCN(C)S(=O)(=O)c2cccc(C(F)(F)F)c2)CC1 (stereo not shown) [Example 556]	27%	86%		
CN(C)C(CCc1ccccc1)C1CCC(CNC(=O)COC2CCN(S(=O)(=O)c3ccc(Cl)cc3)C2)CC1 (stereo not shown) [Example 557]	26%	88%		
CN(C)C(CCc1ccccc1)C1CCC(CNC(=O)COC2CCCN(S(=O)(=O)c3ccccc3)C2)CC1 (stereo not shown) [Example 558]	29%	92%		
COc1ccc(S(=O)(=O)N2CCCCC2COCC(=O)NCC2CCC(C(CCc3ccccc3)N(C)C)CC2)cc1OC (stereo not shown) [Example 559]			14%	84%
COc1cc(C)c(S(=O)(=O)N(CCOCC(=O)NCC2CCC(C(c3ccc(Cl)cc3)N(C)C)CC2)Cc2ccccc2)c(C)c1C (stereo not shown) [Example 560]	22%	47%		
COc1cc(C)c(S(=O)(=O)N2CCC(CCOCC(=O)NCCC3CCC(C(c4ccc(Cl)cc4)N(C)C)CC3)CC2)c(C)c1C (stereo not shown) [Example 561]	26%	79%		
COc1cc(C)c(S(=O)(=O)N(CCOCC(=O)NCC2CCC(C(CCc3ccccc3)N(C)C)CC2)Cc2ccccc2)c(C)c1C (stereo not shown) [Example 562]	23%	96%		
COc1cc(C)c(S(=O)(=O)N(CCOCC(=O)NCC2CCC(C(c3ccc(F)cc3)N(C)C)CC2)Cc2ccccc2)c(C)c1C (stereo not shown) [Example 563]	25%	90%		
COc1cc(C)c(S(=O)(=O)N2CCC(OCC(=O)NCC3CCC(C(CCc4ccccc4)N(C)C)CC3)C2)c(C)c1 (stereo not shown) [Example 565]	20%	94%		
COc1ccc(S(=O)(=O)N2CCC(OCC(=O)NCC3CCC(C(CCc4ccccc4)N(C)C)CC3)C2)cc1OC (stereo not shown) [Example 566]	19%	87%		
CN(C)C(CCc1ccccc1)C1CCC(CNC(=O)COCCN(C)S(=O)(=O)c2ccc(OC(F)(F)F)cc2)CC1 (stereo not shown) [Example 567]	23%	93%		
CN(C)C(c1ccc(F)cc1)C1CCC(CNC(=O)COC2CCN(S(=O)(=O)c3ccccc3)CC2)CC1 (stereo not shown) [Example 568]	11%	97%		
COc1cc(C)c(S(=O)(=O)N(CCOCC(=O)NCCC2CCC(C(c3ccc(Cl)cc3)N(C)C)CC2)Cc2ccccc2)c(C)c1 (stereo not shown) [Example 569]	10%	52%		
COc1ccc(S(=O)(=O)N2CCCCC2COCC(=O)NCC2CCC(C(CCc3ccccc3)N(C)C)CC2)cc1OC (stereo not shown) [Example 570]			16%	87%
COc1ccc(S(=O)(=O)N(C)CCOCC(=O)NCC2CCC(C(CCc3ccccc3)N(C)C)CC2)cc1OC (stereo not shown) [Example 571]	14%	88%		
COc1ccc(S(=O)(=O)N2CCCC2COCC(=O)NCC2CCC(C(CCc3ccccc3)N(C)C)CC2)cc1 (stereo not shown) [Example 572]	29%	93%		
CN(C)C(CCc1ccccc1)C1CCC(CNC(=O)COC2CCN(S(=O)(=O)c3ccccc3)C2)CC1 (stereo not shown) [Example 573]	23%	100%		
CN(C)C(CCc1ccccc1)C1CCC(CNC(=O)COC2CCN(S(=O)(=O)c3ccc(F)cc3)C2)CC1 (stereo not shown) [Example 574]	18%	94%		
CN(C)C(c1ccc(Cl)cc1)C1CCC(CCNC(=O)COCCN(C)S(=O)(=O)c2ccc(OC(F)(F)F)cc2)CC1 (stereo not shown) [Example 575]	11%	77%		
COc1cc(C)c(S(=O)(=O)N(CCOCC(=O)NCCC2CCC(C(c3ccc(Cl)cc3)N(C)C)CC2)Cc2ccccc2)c(C)c1C (stereo not shown) [Example 576]	15%	73%		
CN(C)C(CCc1ccccc1)C1CCC(CNC(=O)COC2CCN(S(=O)(=O)c3ccccc3)CC2)CC1 (stereo not shown) [Example 578]	12%	94%		
CN(C)C(CCc1ccccc1)C1CCC(CNC(=O)COCCN(C)S(=O)(=O)c2c(Cl)cccc2Cl)CC1 (stereo not shown) [Example 580]			13%	77%
COc1ccc(S(=O)(=O)N2CCCCC2COCC(=O)NCCC2CCC(C(c3cccc(F)c3)N(C)C)CC2)cc1OC (stereo not shown) [Example 581]			9%	70%
CN(C)C(c1ccc(F)cc1)C1CCC(CNC(=O)COCCC2CCN(S(=O)(=O)c3ccccc3)CC2)CC1 (stereo not shown) [Example 583]	7%	77%		
CN(C)C(c1ccc(Cl)cc1)C1CCC(CNC(=O)COCCC2CCN(S(=O)(=O)c3ccccc3)CC2)CC1 (stereo not shown) [Example 584]	7%	64%		
CN(C)C(c1ccc(F)cc1)C1CCC(CCNC(=O)COCCN(C)S(=O)(=O)c2ccc(Cl)cc2Cl)CC1 (stereo not shown) [Example 586]	3%	73%		
Cc1cc(C)c(S(=O)(=O)N(C)CCOCC(=O)NCCC2CCC(C(c3cccc(F)c3)N(C)C)CC2)c(C)c1 (stereo not shown) [Example 587]	−5%	86%		
